From patent US7435837B2, “Dihydrobenzofuranyl alkanamine derivatives and methods for using same” (Wyeth, priority 2003, dated 2008)

Assays:
human 5-HT2C receptor = biological target: T1, human 5-HT2C receptor (Homo sapiens, UniProt P28335); assay: 5-HT2C receptor-stimulated calcium mobilization (FLIPR) in CHO cells; assay type: cell-based; conditions: for Emax: CHO, percentage of the response observed with a maximally effective concentration of 5-HT, read-out: 5-HT2C Function Emax (%); for EC50: calcium mobilization, CHO cells stably expressing human 5-HT2C, read-out: 5-HT2C Function EC50;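 for all read-outs here: Fluo-3-AM fluorescence read on FLIPR every 1 s, agonist added after 10 baseline reads, response taken as peak minus lowest raw fluorescence count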
T1 sequence (P28335 33-458): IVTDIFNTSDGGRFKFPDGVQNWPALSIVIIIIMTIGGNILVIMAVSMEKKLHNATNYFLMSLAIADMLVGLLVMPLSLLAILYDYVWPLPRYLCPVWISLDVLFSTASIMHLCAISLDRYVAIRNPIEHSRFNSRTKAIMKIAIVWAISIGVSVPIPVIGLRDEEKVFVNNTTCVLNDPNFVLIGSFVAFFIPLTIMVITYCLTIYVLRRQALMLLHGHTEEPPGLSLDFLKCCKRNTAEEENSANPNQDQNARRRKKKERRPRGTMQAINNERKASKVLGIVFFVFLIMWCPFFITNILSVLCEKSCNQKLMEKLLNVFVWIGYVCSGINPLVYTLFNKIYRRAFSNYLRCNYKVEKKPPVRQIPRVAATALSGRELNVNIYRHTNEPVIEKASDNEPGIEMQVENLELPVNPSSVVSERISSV

[1] = biological target: T2, human 5-hydroxytryptamine-2C (h5-HT2C) receptor (Homo sapiens, UniProt P28335); assay: [125I]DOI binding to membranes of CHO cells expressing the human 5-HT2C receptor; conditions: [125I]DOI radioligand, CHO cell membranes, room temperature 60 min; read-out: 5-HT2C Affinity Ki
T2 construct: expressed in transfected cells; host or cells: CHO (Chinese Hamster Ovary) cells; membranes
T2 sequence (P28335 33-458): T1 sequence (P28335 33-458)

Structure (SMILES) | Emax (human 5-HT2C receptor) [%] | EC50 (human 5-HT2C receptor) [nM] | Ki [1] [nM]
CNCC1Cc2cc(F)cc(-c3cc(Cl)ccc3OC)c2O1 (racemic) [Example 458, (±)-{[7-(5-chloro-2-methoxyphenyl)-5-fluoro-2,3-dihydro-1-benzofuran-2-yl]methyl}methylamine] | 80 | 212 | 17
CNCC1Cc2cc(Cl)cc(-c3cccc(F)c3F)c2O1 (racemic) [Example 463, (±)-{[5-chloro-7-(2,3-difluorophenyl)-2,3-dihydro-1-benzofuran-2-yl]methyl}methylamine] | 80 | 89 | 21
CNCC1Cc2cc(C)cc(-c3cccc(C)c3)c2O1 (racemic) [Example 478, (±)-{[7-(3-methylphenyl)-5-methyl-2,3-dihydro-1-benzofuran-2-yl]methyl}methylamine] | 70 | 225 | 11
CNCC1Cc2cc(C)cc(-c3cccc(Cl)c3)c2O1 (racemic) [Example 479, (±)-{[7-(3-chlorophenyl)-5-methyl-2,3-dihydro-1-benzofuran-2-yl]methyl}methylamine] | 80 | 71 | 0.5
CNCC1Cc2cc(C)cc(-c3ccc(C)cc3)c2O1 (racemic) [Example 480, (±)-{[7-(4-methylphenyl)-5-methyl-2,3-dihydro-1-benzofuran-2-yl]methyl}methylamine] | 70 | 251 | 4.4
CNCC1Cc2cc(C)cc(-c3ccc(Cl)cc3)c2O1 (racemic) [Example 481, (±)-{[7-(4-chlorophenyl)-5-methyl-2,3-dihydro-1-benzofuran-2-yl]methyl}methylamine] | 80 | 75 | 1.5
CNCC1Cc2cc(C)cc(-c3ccc(F)cc3)c2O1 (racemic) [Example 482, (±)-{[7-(4-fluorophenyl)-5-methyl-2,3-dihydro-1-benzofuran-2-yl]methyl}methylamine] | 80 | 143 | 7
CNCC1Cc2cc(OC)cc(-c3ccccc3F)c2O1 (racemic) [Example 491, (±)-{[7-(2-fluorophenyl)-5-methoxy-2,3-dihydro-1-benzofuran-2-yl]methyl}methylamine] | 80 | 200 | 22
CNCC1Cc2cc(OC)cc(-c3cccc(F)c3F)c2O1 (racemic) [Example 494, (±)-{[7-(2,3-difluorophenyl)-5-methoxy-2,3-dihydro-1-benzofuran-2-yl]methyl}methylamine] | 60 | 475 | 35
CNCC1Cc2cc(OC)cc(-c3cccc(Cl)c3Cl)c2O1 (racemic) [Example 495, (±)-{[7-(2,3-dichlorophenyl)-5-methoxy-2,3-dihydro-1-benzofuran-2-yl]methyl}methylamine] | 60 | 338 | 41
CNCC1Cc2cc(OC)cc(-c3cccc(C)c3C)c2O1 (racemic) [Example 496, (±)-{[7-(2,3-dimethylphenyl)-5-methoxy-2,3-dihydro-1-benzofuran-2-yl]methyl}methylamine] | 60 | 510 | 46
CNCC1Cc2cc(OC)cc(-c3ccc(F)cc3F)c2O1 (racemic) [Example 497, (±)-{[7-(2,4-difluorophenyl)-5-methoxy-2,3-dihydro-1-benzofuran-2-yl]methyl}methylamine] | 70 | 315 | 37
CNCC1Cc2cc(OC)cc(-c3cc(F)ccc3F)c2O1 (racemic) [Example 498, (±)-{[7-(2,5-difluorophenyl)-5-methoxy-2,3-dihydro-1-benzofuran-2-yl]methyl}methylamine] | 70 | 326 | 35
CNCC1Cc2cc(OC)cc(-c3cc(C)ccc3C)c2O1 (racemic) [Example 500, (±)-{[7-(2,5-dimethylphenyl)-5-methoxy-2,3-dihydro-1-benzofuran-2-yl]methyl}methylamine] | 80 | 256 | 86
CNCC1Cc2cc(OC)cc(-c3cc(OC)ccc3OC)c2O1 (racemic) [Example 501, (±)-{[7-(2,5-dimethoxyphenyl)-5-methoxy-2,3-dihydro-1-benzofuran-2-yl]methyl}methylamine] | 70 | 70 | 45
CNCC1Cc2cc(C(F)(F)F)cc(-c3ccccc3)c2O1 (racemic) [Example 518, (±)-{[N-methyl-1-[7-phenyl-5-(trifluoromethyl)-2,3-dihydro-1-benzofuran-2-yl]methanamine] | 80 | 384 | 40

Stronger by EC50 (human 5-HT2C receptor), values ahead:

Emax (human 5-HT2C receptor) [%] | EC50 (human 5-HT2C receptor) [nM] | Ki [1] [nM] | Structure (SMILES)
90 | 16 | 24 | CNCC1Cc2cc(F)cc(-c3cccnc3)c2O1 (racemic) [Example 459, (±)-[(5-fluoro-7-pyridin-3-yl-2,3-dihydro-1-benzofuran-2-yl)methyl]methylamine]
80 | 25 | 3.2 | CNCC1Cc2cc(C)cc(-c3ccccc3F)c2O1 (racemic) [Example 475, (±)-{[7-(2-fluorophenyl)-5-methyl-2,3-dihydro-1-benzofuran-2-yl]methyl}methylamine]
100 | 5 | 0.2 | CNCC1Cc2cc(C)cc(-c3ccccc3Cl)c2O1 (racemic) [Example 476, (±)-{[7-(2-chlorophenyl)-5-methyl-2,3-dihydro-1-benzofuran-2-yl]methyl}methylamine]
80 | 9 | 6.7 | CNCC1Cc2cc(C)cc(-c3ccccc3OC)c2O1 (racemic) [Example 477, (±)-{[7-(2-methoxyphenyl)-5-methyl-2,3-dihydro-1-benzofuran-2-yl]methyl}methylamine]
80 | 58 | 5 | CNCC1Cc2cc(C)cc(-c3ccc(OC)cc3)c2O1 (racemic) [Example 483, (±)-{[7-(4-methoxyphenyl)-5-methyl-2,3-dihydro-1-benzofuran-2-yl]methyl}methylamine]
70 | 43 | 0.51 | CNCC1Cc2cc(C)cc(-c3cccc(OC)c3OC)c2O1 (racemic) [Example 484, (±)-{[7-(2,3-dimethoxyphenyl)-5-methyl-2,3-dihydro-1-benzofuran-2-yl]methyl}methylamine]
90 | 32 | 3 | CNCC1Cc2cc(C)cc(-c3ccc(Cl)cc3Cl)c2O1 (racemic) [Example 485, (±)-{[7-(2,4-dichlorophenyl)-5-methyl-2,3-dihydro-1-benzofuran-2-yl]methyl}methylamine]
90 | 5 | 0.2 | CNCC1Cc2cc(C)cc(-c3cc(Cl)ccc3Cl)c2O1 (racemic) [Example 486, (±)-{[7-(2,5-dichlorophenyl)-5-methyl-2,3-dihydro-1-benzofuran-2-yl]methyl}methylamine]
90 | 39 | 3 | CNCC1Cc2cc(C)cc(-c3c(C)cccc3C)c2O1 (racemic) [Example 489, (±)-{[7-(2,6-dimethylphenyl)-5-methyl-2,3-dihydro-1-benzofuran-2-yl]methyl}methylamine]
100 | 6 | 1 | CNCC1Cc2cc(C)cc(-c3c(Cl)cccc3Cl)c2O1 (racemic) [Example 490, (±)-{[7-(2,6-dichlorophenyl)-5-methyl-2,3-dihydro-1-benzofuran-2-yl]methyl}methylamine]
80 | 7 | 3.1 | CNCC1Cc2cc(OC)cc(-c3ccccc3Cl)c2O1 (racemic) [Example 492, (±)-{[7-(2-chlorophenyl)-5-methoxy-2,3-dihydro-1-benzofuran-2-yl]methyl}methylamine]
90 | 8 | 11 | CNCC1Cc2cc(OC)cc(-c3ccccc3C)c2O1 (racemic) [Example 493, (±)-{[7-(2-methylphenyl)-5-methoxy-2,3-dihydro-1-benzofuran-2-yl]methyl}methylamine]
90 | 57 | 3.6 | CNCC1Cc2cc(OC)cc(-c3cc(Cl)ccc3Cl)c2O1 (racemic) [Example 499, (±)-{[7-(2,5-dichlorophenyl)-5-methoxy-2,3-dihydro-1-benzofuran-2-yl]methyl}methylamine]
90 | 27 | 1.2 | CNCC1Cc2cc(OC)cc(-c3c(C)cccc3C)c2O1 (racemic) [Example 504, (±)-{[7-(2,6-dimethylphenyl)-5-methoxy-2,3-dihydro-1-benzofuran-2-yl]methyl}methylamine]
90 | 50 | 25 | CNCC1Cc2cc(C(F)(F)F)cc(-c3ccc(OC)cc3OC)c2O1 (racemic) [Example 526, (±)-N-methyl-1-[7-(2,4-dimethoxyphenyl)-5-(trifluoromethyl)-2,3-dihydro-1-benzofuran-2-yl]methanamine]
